Laboratory results reported in patent US20250101104A1, “BISPECIFIC MOLECULE WITH TUNABLE AFFINITY TO A TARGETED ANTIGEN” (MABSWITCH INC., priority 2022, published 2025).

Columns and labels:
[1] = biological target: T1, Human CD3 epsilon&CD3 gamma Heterodimer Protein (Homo sapiens, UniProt P07766); experiment: Bispecific functionality ELISA (captured CD3, detection with biotinylated CD33 Fc-fusion); assay type: binding; conditions: affinity to the CD3 antigen
T1 construct: purchased Biorbyt Ltd, Cambridge, United Kingdom
Method: Bispecific functionality is tested in an ELISA using soluble Human CD3 epsilon&CD3 gamma Heterodimer Protein (Biorbyt Ltd, Cambridge, United Kingdom) that is captured to the ELISA plate surface and an Fc-fusion of CD33 that carried an AviTag™ (biotinylated) (BPS Bioscience, Inc., San Diego, USA) detected by HRP conjugated streptavidin (BPS Bioscience, Inc., San Diego, USA). Dilution curves of the protein A purified bispecific scFv-Fc constructs are compared. For control, a bispecific scFv-Fc construct wherein the linker between the OKT3 variable heavy chain sequence to the OKT3 variable light chain sequence is a non-switchable variant (GGGGSGGGGSGG GGS (SEQ ID NO: 365)) is constructed, produced and purified as described above.

[2] = system: CD3 positive Jurkat cells; experiment: Switch activity on living cells, flow cytometry; assay type: cell-based; conditions: incubated with the switch peptide variant SEQ ID NO:2
Method: The bispecific switchable anti-CD3/antiCD33 Fc fusion protein product MS42-13 is further tested for switch activity in the presence and absence of switch linkers on living cells using flow cytometry. For the cytofluorometry analysis, CD3 positive Jurkat cells (ATCC, Clone E6-1), cultivated in suspension culture as described by the provider, are seeded in FACS tubes and washed with 3 mL PBS supplemented with 2 mM EDTA and 2% (v/v) FCS (centrifugation for 5 min at 500×g and 4-C). Cells are incubated with […] of various dilutions of scFv-Fc bispecific antibody constructs (between 10 ng/mL and […]) for 1 h on ice. Cells are washed two times with 3 mL PBS (centrifugation for 5 min at 500×g and 4-C) and are incubated with 100 μL Fc-fusion of CD33 that carried an AviTag™ (biotinylated) (BPS Bioscience, Inc., San Diego, USA) (Fc-specific) for 1 h on ice in the dark in either the presence or absence of the switch peptides (1 μM or 10 μM). […] A minimum of 10^4 events are analyzed per sample. Analysis is performed with CXP analysis 2.2 software (Beckman Coulter, Fullerton, CA) and Mean Fluorescence Intensities (MFI) are determined using Flowjo™ software (Treestar).

[3] = mice; cited from earlier work
[4] = system: circulating CD123^+ cells; conditions: cited from earlier work
[5] = system: CD123+KG-1a; conditions: cited from earlier work
[6] = system: TF-1 AML cell lines; conditions: cited from earlier work

T1 sequence (P07766 23-126 limits assumed): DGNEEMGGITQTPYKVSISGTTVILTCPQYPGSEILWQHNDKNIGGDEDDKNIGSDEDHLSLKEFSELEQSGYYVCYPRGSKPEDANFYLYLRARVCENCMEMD
T1 sequence (P09693 23-116 partner limits assumed): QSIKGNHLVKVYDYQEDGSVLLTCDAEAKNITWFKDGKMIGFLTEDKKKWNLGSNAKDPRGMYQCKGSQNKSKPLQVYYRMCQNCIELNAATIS

Substance | drop in EC50 compared to the construct with the non-switchable wild type Gly-Ser linker [1] [fold] | increase of half-maximal binding compared to the construct with the non-switchable linker (SEQ ID NO:365) [2] [fold] | serum half-life [3] [h] | T cell activation ([4]; cynomolgus monkeys) | depletion of circulating CD123+ cells including basophils and plasmacytoid dendritic cells ([4]; within 1 hour of administration) | EC50 of T cell-mediated killing [5] [ng/mL] | EC50 of T cell-mediated killing [6] [ng/mL]
MS42-13: switchable bispecific anti-CD3/anti-CD33 scFv-Fc fusion: OKT3 scFv with calmodulin switch linker, gemtuzumab scFv, knob-into-hole Fc (SEQ ID NO:366, 367) | 24.6 | ≤ 21.3 | – | – | – | – | –
XmAb14045: Fc domain-containing bispecific antibody stimulating T cell-mediated killing of CD123+ cells | – | – | 149 | strongly activated T cells | over 99% | < 1 | < 1
